According to ChEMBL document CHEMBL3885861, “Open TG-GATES”:

Species: Rattus norvegicus
Experiment: Open TG-GATES - Regimen: Daily Repeat
Type: toxicity, organism-based, Sprague-Dawley
Set-up: regimen Daily Repeat, gender Male, age 6 weeks
Conditions: in vivo, po, route gavage; for APTT / Bas / Eos / Fbg / Hb / Ht / Lym / MCH / MCHC / MCV / Mono / Neu / PT / Plat / RBC / Ret / WBC: tissue Blood; for KIDNEY_L / KIDNEY_R / KIDNEY_TOTAL: tissue Kidney; for LIVER: tissue Liver; for A/G / ALP / ALT / AST / BUN / CRE / Ca / Cl / DBIL / GLC / IP / K / LDH / Na / PL / RALB / TBIL / TC / TG / TP / gamma-GTP: tissue Plasma
[1] = 15 mg/kg, 72 h, dose level Middle, time 3 day
[2] = 15 mg/kg, […], dose level Middle, time 7 day
[3] = 15 mg/kg, […], dose level Middle, time 14 day
[4] = 15 mg/kg, […], dose level Middle, time 28 day
[5] = 50 mg/kg, 72 h, dose level High, time 3 day
[6] = 50 mg/kg, […], dose level High, time 7 day
[7] = 50 mg/kg, […], dose level High, time 14 day
[8] = 50 mg/kg, […], dose level High, time 28 day

CC1=C(CC(=O)O)c2cc(F)ccc2/C1=C\c1ccc([S+](C)[O-])cc1 (centres undefined)
TERMINAL_BW [1]: 235.3 g
APTT [1]: 17.2 s
Bas [1]: 0%
Eos [1]: 1%
Fbg [1]: 309 mg/dL
Hb [1]: 14.2 g/dL
Ht [1]: 43%
Lym [1]: 75.8%
MCH [1]: 21.2 pg
MCHC [1]: 33%
MCV [1]: 64.3 fL
Mono [1]: 2.6%
Neu [1]: 20%
PT [1]: 13.7 s
Plat [1]: 120.1 x10_4/uL
RBC [1]: 671.2 x10_4/ul
Ret [1]: 7.1%
WBC [1]: 90 x10_2/uL
KIDNEY_L [1]: 1 g
KIDNEY_R [1]: 1 g
KIDNEY_TOTAL [1]: 2 g
LIVER [1]: 11.3 g
A/G [1]: 0.9
ALP [1]: 1549.6 IU/L
ALT [1]: 44.2 IU/L
AST [1]: 72.4 IU/L
BUN [1]: 15.8 mg/dL
CRE [1]: 0.2 mg/dL
Ca [1]: 11.1 mg/dL
Cl [1]: 106 meq/L
DBIL [1]: 0.012 mg/dL
GLC [1]: 185.2 mg/dL
IP [1]: 7.3 mg/dL
K [1]: 4 meq/L
LDH [1]: 93.8 IU/L
Na [1]: 142.8 meq/L
PL [1]: 159 mg/dL
RALB [1]: 2.7 g/dL
TBIL [1]: 0.018 mg/dL
TC [1]: 85.2 mg/dL
TG [1]: 98.6 mg/dL
TP [1]: 5.6 g/dL
gamma-GTP [1]: 1 IU/L
TERMINAL_BW [2]: 268.9 g
TERMINAL_BW [3]: 338.3 g
TERMINAL_BW [4]: 411.4 g
APTT [2]: 17.1 s
Bas [2]: 0%
Eos [2]: 1%
Fbg [2]: 295.2 mg/dL
Hb [2]: 14.4 g/dL
Ht [2]: 42.6%
Lym [2]: 77.6%
MCH [2]: 21.2 pg
MCHC [2]: 33.8%
MCV [2]: 62.6 fL
Mono [2]: 2.4%
Neu [2]: 18.8%
PT [2]: 13.5 s
Plat [2]: 137.1 x10_4/uL
RBC [2]: 681.2 x10_4/ul
Ret [2]: 6.1%
WBC [2]: 102.7 x10_2/uL
APTT [3]: 18 s
Bas [3]: 0%
Eos [3]: 1%
Fbg [3]: 325.2 mg/dL
Hb [3]: 14.6 g/dL
Ht [3]: 42.9%
Lym [3]: 73.2%
MCH [3]: 20.5 pg
MCHC [3]: 34.1%
MCV [3]: 60 fL
Mono [3]: 2.2%
Neu [3]: 23%
PT [3]: 13.7 s
Plat [3]: 131.8 x10_4/uL
RBC [3]: 715.4 x10_4/ul
Ret [3]: 4.6%
WBC [3]: 104.2 x10_2/uL
APTT [4]: 20.6 s
Bas [4]: 0%
Eos [4]: 0.8%
Fbg [4]: 263.6 mg/dL
Hb [4]: 14.9 g/dL
Ht [4]: 45.8%
Lym [4]: 76%
MCH [4]: 18.9 pg
MCHC [4]: 32.6%
MCV [4]: 58 fL
Mono [4]: 2%
Neu [4]: 20.8%
PT [4]: 12.6 s
Plat [4]: 111.8 x10_4/uL
RBC [4]: 792.6 x10_4/ul
Ret [4]: 3.7%
WBC [4]: 112.4 x10_2/uL
KIDNEY_L [2]: 1.2 g
KIDNEY_R [2]: 1.1 g
KIDNEY_TOTAL [2]: 2.3 g
KIDNEY_L [3]: 1.3 g
KIDNEY_R [3]: 1.2 g
KIDNEY_TOTAL [3]: 2.5 g
KIDNEY_L [4]: 1.4 g
KIDNEY_R [4]: 1.4 g
KIDNEY_TOTAL [4]: 2.8 g
LIVER [2]: 12.6 g
LIVER [3]: 15.2 g
LIVER [4]: 17.1 g
A/G [2]: 0.9
ALP [2]: 1603.8 IU/L
ALT [2]: 41.2 IU/L
AST [2]: 66.8 IU/L
BUN [2]: 17.2 mg/dL
CRE [2]: 0.2 mg/dL
Ca [2]: 11 mg/dL
Cl [2]: 104 meq/L
DBIL [2]: 0.016 mg/dL
GLC [2]: 183 mg/dL
IP [2]: 7.3 mg/dL
K [2]: 4.3 meq/L
LDH [2]: 87.4 IU/L
Na [2]: 141 meq/L
PL [2]: 187.6 mg/dL
RALB [2]: 2.8 g/dL
TBIL [2]: 0.016 mg/dL
TC [2]: 91.6 mg/dL
TG [2]: 171.6 mg/dL
TP [2]: 5.9 g/dL
gamma-GTP [2]: 1 IU/L
A/G [3]: 0.9
ALP [3]: 1475.4 IU/L
ALT [3]: 42.6 IU/L
AST [3]: 65.6 IU/L
BUN [3]: 17.4 mg/dL
CRE [3]: 0.3 mg/dL
Ca [3]: 10.9 mg/dL
Cl [3]: 105.6 meq/L
DBIL [3]: 0.018 mg/dL
GLC [3]: 183 mg/dL
IP [3]: 6.8 mg/dL
K [3]: 3.8 meq/L
LDH [3]: 75.4 IU/L
Na [3]: 143.4 meq/L
PL [3]: 173.4 mg/dL
RALB [3]: 2.8 g/dL
TBIL [3]: 0.042 mg/dL
TC [3]: 81.4 mg/dL
TG [3]: 191 mg/dL
TP [3]: 6 g/dL
gamma-GTP [3]: 1 IU/L
A/G [4]: 0.8
ALP [4]: 1137.2 IU/L
ALT [4]: 35.8 IU/L
AST [4]: 62 IU/L
BUN [4]: 18.2 mg/dL
CRE [4]: 0.3 mg/dL
Ca [4]: 10.7 mg/dL
Cl [4]: 103.8 meq/L
DBIL [4]: 0.008 mg/dL
GLC [4]: 178.4 mg/dL
IP [4]: 6.9 mg/dL
K [4]: 3.8 meq/L
LDH [4]: 64.6 IU/L
Na [4]: 142.8 meq/L
PL [4]: 153.4 mg/dL
RALB [4]: 2.8 g/dL
TBIL [4]: 0.076 mg/dL
TC [4]: 74.8 mg/dL
TG [4]: 162.8 mg/dL
TP [4]: 6.2 g/dL
gamma-GTP [4]: 1 IU/L
TERMINAL_BW [5]: 223.6 g
APTT [5]: 18.5 s
Bas [5]: 0.2%
Eos [5]: 1.2%
Fbg [5]: 396.2 mg/dL
Hb [5]: 13.9 g/dL
Ht [5]: 41.6%
Lym [5]: 71.2%
MCH [5]: 20.7 pg
MCHC [5]: 33.3%
MCV [5]: 62.3 fL
Mono [5]: 3.4%
Neu [5]: 24%
PT [5]: 13.3 s
Plat [5]: 112.6 x10_4/uL
RBC [5]: 668 x10_4/ul
Ret [5]: 6%
WBC [5]: 137.2 x10_2/uL
KIDNEY_L [5]: 1 g
KIDNEY_R [5]: 1 g
KIDNEY_TOTAL [5]: 2 g
LIVER [5]: 11 g
A/G [5]: 0.9
ALP [5]: 1504.6 IU/L
ALT [5]: 38.2 IU/L
AST [5]: 63 IU/L
BUN [5]: 15.6 mg/dL
CRE [5]: 0.2 mg/dL
Ca [5]: 11 mg/dL
Cl [5]: 106.8 meq/L
DBIL [5]: 0.008 mg/dL
GLC [5]: 178.4 mg/dL
IP [5]: 6.5 mg/dL
K [5]: 4.2 meq/L
LDH [5]: 96.4 IU/L
Na [5]: 141.8 meq/L
PL [5]: 164.4 mg/dL
RALB [5]: 2.6 g/dL
TBIL [5]: 0.016 mg/dL
TC [5]: 91.2 mg/dL
TG [5]: 129.8 mg/dL
TP [5]: 5.4 g/dL
gamma-GTP [5]: 1.2 IU/L
TERMINAL_BW [6]: 211.2 g
TERMINAL_BW [7]: 263.8 g
TERMINAL_BW [8]: 295.9 g
APTT [6]: 16.7 s
Bas [6]: 0.6%
Eos [6]: 1.2%
Fbg [6]: 522.6 mg/dL
Hb [6]: 11.5 g/dL
Ht [6]: 35.1%
Lym [6]: 55%
MCH [6]: 20.8 pg
MCHC [6]: 32.8%
MCV [6]: 63.4 fL
Mono [6]: 3.8%
Neu [6]: 38.8%
PT [6]: 13 s
Plat [6]: 252.7 x10_4/uL
RBC [6]: 553.6 x10_4/ul
Ret [6]: 11.8%
WBC [6]: 207.1 x10_2/uL
APTT [7]: 25.1 s
Bas [7]: 0%
Eos [7]: 1.7%
Fbg [7]: 447 mg/dL
Hb [7]: 10.8 g/dL
Ht [7]: 33.6%
Lym [7]: 56%
MCH [7]: 20.6 pg
MCHC [7]: 31.6%
MCV [7]: 65.2 fL
Mono [7]: 4%
Neu [7]: 37%
PT [7]: 13.3 s
Plat [7]: 243.4 x10_4/uL
RBC [7]: 517.7 x10_4/ul
Ret [7]: 16.3%
WBC [7]: 216.8 x10_2/uL
APTT [8]: 18.9 s
Bas [8]: 0%
Eos [8]: 1.7%
Fbg [8]: 577 mg/dL
Hb [8]: 10.2 g/dL
Ht [8]: 34.4%
Lym [8]: 51.7%
MCH [8]: 18.1 pg
MCHC [8]: 29.3%
MCV [8]: 61.7 fL
Mono [8]: 4.7%
Neu [8]: 41%
PT [8]: 11.9 s
Plat [8]: 221.3 x10_4/uL
RBC [8]: 561.3 x10_4/ul
Ret [8]: 16.6%
WBC [8]: 217.4 x10_2/uL
KIDNEY_L [6]: 1 g
KIDNEY_R [6]: 1 g
KIDNEY_TOTAL [6]: 2 g
KIDNEY_L [7]: 1.1 g
KIDNEY_R [7]: 1.1 g
KIDNEY_TOTAL [7]: 2.2 g
KIDNEY_L [8]: 1.3 g
KIDNEY_R [8]: 1.2 g
KIDNEY_TOTAL [8]: 2.5 g
LIVER [6]: 10.6 g
LIVER [7]: 13.4 g
LIVER [8]: 15.2 g
A/G [6]: 0.9
ALP [6]: 1360.6 IU/L
ALT [6]: 24.4 IU/L
AST [6]: 64 IU/L
BUN [6]: 39.8 mg/dL
CRE [6]: 0.3 mg/dL
Ca [6]: 10.6 mg/dL
Cl [6]: 104 meq/L
DBIL [6]: 0.032 mg/dL
GLC [6]: 154.2 mg/dL
IP [6]: 7.5 mg/dL
K [6]: 4.3 meq/L
LDH [6]: 96.8 IU/L
Na [6]: 141 meq/L
PL [6]: 157.6 mg/dL
RALB [6]: 2.4 g/dL
TBIL [6]: 0.066 mg/dL
TC [6]: 78.8 mg/dL
TG [6]: 104.2 mg/dL
TP [6]: 5.1 g/dL
gamma-GTP [6]: 5 IU/L
A/G [7]: 0.9
ALP [7]: 806 IU/L
ALT [7]: 28.7 IU/L
AST [7]: 49.3 IU/L
BUN [7]: 18.3 mg/dL
CRE [7]: 0.3 mg/dL
Ca [7]: 10.5 mg/dL
Cl [7]: 106.3 meq/L
DBIL [7]: 0.0133 mg/dL
GLC [7]: 156.3 mg/dL
IP [7]: 5.3 mg/dL
K [7]: 4.5 meq/L
LDH [7]: 74 IU/L
Na [7]: 141.7 meq/L
PL [7]: 203 mg/dL
RALB [7]: 2.5 g/dL
TBIL [7]: 0.03 mg/dL
TC [7]: 96.7 mg/dL
TG [7]: 326.7 mg/dL
TP [7]: 5.4 g/dL
gamma-GTP [7]: 1.7 IU/L
A/G [8]: 0.8
ALP [8]: 657 IU/L
ALT [8]: 23.3 IU/L
AST [8]: 47.3 IU/L
BUN [8]: 18.3 mg/dL
CRE [8]: 0.3 mg/dL
Ca [8]: 10 mg/dL
Cl [8]: 103 meq/L
DBIL [8]: 0.0067 mg/dL
GLC [8]: 149.3 mg/dL
IP [8]: 7 mg/dL
K [8]: 3.8 meq/L
LDH [8]: 92 IU/L
Na [8]: 141.7 meq/L
PL [8]: 181.7 mg/dL
RALB [8]: 2.3 g/dL
TBIL [8]: 0.06 mg/dL
TC [8]: 88.7 mg/dL
TG [8]: 261.7 mg/dL
TP [8]: 5.1 g/dL
gamma-GTP [8]: 1.7 IU/L
